The values that follow come from patent US20230157996A1, “SMALL-MOLECULE INHIBITOR TARGETING EB VIRUS NUCLEAR ANTIGEN PROTEIN, PREPARATION METHOD AND USE THEREOF” (priority 2020, published 2023).

The structures appear in SMILES notation.

One test concerns C666-1 cells. Kind of test: C666-1 cell viability single concentration (50 μM) inhibition rate (Resazurin). The test is classed as cell-based. As to conditions: 50 μM compound, 72 hours, C666-1 cells. The procedure, abridged:
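EBV-positive C666-1 cells (5×10^3/well), pre-cultured 24 h, were exposed to compound at 50 μmol/L final for 72 h at 37° C, 5% CO2, in duplicate. Viability by resazurin (3 h, ex 560/em 590 nm); inhibition rate computed relative to DMSO control and medium-only blank.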
On the technique in general: Resazurin is reduced to fluorescent resorufin, in cell work by metabolically active cells.
Take `COC(=O)c1cccc(N2CC(Oc3ccccc3)C2)c1-n1cccc1` [Example 257, Methyl 3-((3-phenoxy)azetidin-1-yl)-2-(1H-pyrrol-1-yl)benzoate]: the “C666-1 cell viability single concentration (50 μM) inhibition rate, Ratio* (Inh %)” value was “++ (10%-30% ++)”.

Staying with this test, now noted: Homo sapiens, C6661, 72 h, 50 μM compound, 72 hours, C666-1 cells; read-out: C666-1 cell viability single concentration (50 μM) inhibition rate, Ratio* (Inh %).
As for `COC(=O)c1cccc(N2CC(Oc3ccc(NC(=O)Nc4ccc(C(F)(F)F)cc4)cc3)C2)c1-n1cccc1` [Example 229, Methyl 3-(3-(4-(3-(4-(trifluoromethyl)phenyl)ureido)phenoxy)azetidin-1-yl)-2-(1H-pyrrol-1-yl)benzoate], the inhibition at 50 µM was greater than 50%.

`O=C(Nc1ccc(OC2CN(c3cccc(C(=O)O)c3-n3cccc3)C2)cc1)Nc1ccc(C(F)(F)F)cc1` [Example 230, 3-(3-(4-(3-(4-(trifluoromethyl)phenyl)ureido)phenoxy)azetidin-1-yl)-2-(1H-pyrrol-1-yl)benzoic acid]: the inhibition at 50 µM lay within 10 to 30%.

For the compound `O=C(NCc1cccs1)c1cccc(N2CC(Oc3ccc(CO)cc3)C2)c1-n1cccc1` [Example 231, N-(thiophen-2-yl-methyl)-3-(3-(4-(hydroxymethyl)phenoxy)azetidin-1-yl)-2-(1H-pyrrol-1-yl)benzamide], the inhibition at 50 µM was 10 to 30%.

Turning to `CCOCc1ccc(OC2CN(c3cccc(C(=O)OCC)c3-n3cccc3)C2)cc1` [Example 232, Ethyl 3-(3-(4-(ethoxymethyl)phenoxy)azetidin-1-yl)-2-(1H-pyrrol-1-yl)benzoate], the inhibition at 50 µM is less than 10%.

Turning to `CCOCc1ccc(OC2CN(c3cccc(C(=O)O)c3-n3cccc3)C2)cc1` [Example 233, 3-(3-(4-(ethoxymethyl)phenoxy)azetidin-1-yl)-2-(1H-pyrrol-1-yl)benzoic acid], the inhibition at 50 µM is less than 10%.

On to `COC(=O)c1cccc(N2CC(Oc3ccc(CN4CCOCC4)cc3)C2)c1-n1cccc1` [Example 235, Methyl 3-(3-(4-(morpholinylmethyl)phenoxy)azetidin-1-yl)-2-(1H-pyrrol-1-yl)benzoate], for which the inhibition at 50 µM was 30 to 50%.

For `COC(=O)c1cccc(N2CC(Oc3ccc(COC(=S)Nc4ccc(Cl)cc4)cc3)C2)c1-n1cccc1` [Example 236, Methyl 3-(3-(4-((((4-chlorophenyl)thiocarbamoyl)oxy)methyl)phenoxy)azetidin-1-yl)-2-(1H-pyrrol-1-yl)benzoate], the inhibition at 50 µM is 10 to 30%.

`O=C(Nc1ccc(Cl)cc1)OCc1ccc(OC2CN(c3cccc(C(=O)O)c3-n3cccc3)C2)cc1` [Example 237]: the inhibition at 50 µM was less than 10%.

In the case of `CCNC(=S)OCc1ccc(OC2CN(c3cccc(C(=O)OC)c3-n3cccc3)C2)cc1` [Example 238], the inhibition at 50 µM lay within 10 to 30%.

For `CCNC(=S)OCc1ccc(OC2CN(c3cccc(C(=O)O)c3-n3cccc3)C2)cc1` [Example 239], the inhibition at 50 µM was less than 10%.

On to `COC(=O)c1cccc(N2CC(Oc3ccc(COc4ccc(Cl)cc4)cc3)C2)c1-n1cccc1` [Example 240, Methyl 3-(3-(4-((4-chlorophenoxy)methyl)phenoxy)azetidin-1-yl)-2-(1H-pyrrol-1-yl)benzoate], for which the inhibition at 50 µM is less than 10%.

As for `O=C(O)c1cccc(N2CC(Oc3ccc(COc4ccc(Cl)cc4)cc3)C2)c1-n1cccc1` [Example 241, 3-(3-(4-((4-chlorophenoxy)methyl)phenoxy)azetidin-1-yl)-2-(1H-pyrrol-1-yl)benzoic acid], the inhibition at 50 µM is less than 10%.

With `COC(=O)c1cccc(N2CC(Oc3ccc(CNC(=O)NC4CC4)cc3)C2)c1-n1cccc1` [Example 242, Methyl 3-(3-(4-((3-cyclopropylureido)methyl)phenoxy)azetidin-1-yl)-2-(1H-pyrrol-1-yl)benzoate], the inhibition at 50 µM was in the range of 10 to 30%.

Consider `COC(=O)c1cccc(N2CC(Oc3ccc(COc4cccnc4)cc3)C2)c1-n1cccc1` [Example 243, Methyl 3-(3-(4-((pyridin-3-yl-oxy)methyl)phenoxy)azetidin-1-yl)-2-(1H-pyrrol-1-yl)benzoate], for which the inhibition at 50 µM is greater than 50%.

On to `O=C(O)c1cccc(N2CC(Oc3ccc(COc4cccnc4)cc3)C2)c1-n1cccc1` [Example 244, 3-(3-(4-((pyridin-3-yl-oxy)methyl)phenoxy)azetidin-1-yl)-2-(1H-pyrrol-1-yl)benzoic acid], for which the inhibition at 50 µM lay in the range of 30 to 50%.

As to `COC(=O)c1cccc(N2CC(Oc3ccc(COc4ccc(F)cc4)cc3)C2)c1-n1cccc1` [Example 245, Methyl 3-(3-(4-((4-fluorophenoxy)methyl)phenoxy)azetidin-1-yl)-2-(1H-pyrrol-1-yl)benzoate], the inhibition at 50 µM was less than 10%.

In the case of `O=C(O)c1cccc(N2CC(Oc3ccc(COc4ccc(F)cc4)cc3)C2)c1-n1cccc1` [Example 246, 3-(3-(4-((4-fluorophenoxy)methyl)phenoxy)azetidin-1-yl)-2-(1H-pyrrol-1-yl)benzoic acid], the inhibition at 50 µM was less than 10%.

Take `COC(=O)c1cccc(N2CC(Oc3ccc(COc4cccc(F)c4)cc3)C2)c1-n1cccc1` [Example 247, Methyl 3-(3-(4-((3-fluorophenoxy)methyl)phenoxy)azetidin-1-yl)-2-(1H-pyrrol-1-yl)benzoate]: the inhibition at 50 µM lay in the range of 10 to 30%.

With `O=C(O)c1cccc(N2CC(Oc3ccc(COc4cccc(F)c4)cc3)C2)c1-n1cccc1` [Example 248, 3-(3-(4-((3-fluorophenoxy)methyl)phenoxy)azetidin-1-yl)-2-(1H-pyrrol-1-yl)benzoic acid], the inhibition at 50 µM is less than 10%.

In the case of `COC(=O)c1cccc(N2CC(Oc3ccc(COc4cccc(C(F)(F)F)c4)cc3)C2)c1-n1cccc1` [Example 249, Methyl 3-(3-(4-((3-(trifluoromethyl)phenoxy)methyl)phenoxy)azetidin-1-yl)-2-(1H-pyrrol-1-yl)benzoate], the inhibition at 50 µM is less than 10%.

Consider `O=C(O)c1cccc(N2CC(Oc3ccc(COc4cccc(C(F)(F)F)c4)cc3)C2)c1-n1cccc1` [Example 250, 3-(3-(4-((3-(trifluoromethyl)phenoxy)methyl)phenoxy)azetidin-1-yl)-2-(1H-pyrrol-1-yl)benzoic acid], for which the inhibition at 50 µM lay within 10 to 30%.

Regarding `COC(=O)c1cccc(N2CC(Oc3ccc(CO)c(C)c3)C2)c1-n1cccc1` [Example 251, Methyl 3-(3-(4-(hydroxymethyl)-3-methylphenoxy)azetidin-1-yl)-2-(1H-pyrrol-1-yl)benzoate], the inhibition at 50 µM was greater than 50%.

With `Cc1cc(OC2CN(c3cccc(C(=O)O)c3-n3cccc3)C2)ccc1CO` [Example 252, 3-(3-(4-(hydroxymethyl)-3-methylphenoxy)azetidin-1-yl)-2-(1H-pyrrol-1-yl)benzoic acid], the inhibition at 50 µM was less than 10%.

Consider `COC(=O)c1cccc(N2CC(Oc3ccc(N)cc3)C2)c1-n1cccc1` [Example 253, Methyl 3-(3-(4-aminophenoxy)azetidin-1-yl)-2-(1H-pyrrol-1-yl)benzoate], for which the inhibition at 50 µM was in the range of 10 to 30%.

Take `Nc1ccc(OC2CN(c3cccc(C(=O)O)c3-n3cccc3)C2)cc1` [Example 254, 3-(3-(4-aminophenoxy)azetidin-1-yl)-2-(1H-pyrrol-1-yl)benzoic acid]: the inhibition at 50 µM was less than 10%.

In the case of `COC(=O)c1cccc(N2CC(Oc3ccccc3N)C2)c1-n1cccc1` [Example 255, Methyl 3-(3-(2-aminophenoxy)azetidin-1-yl)-2-(1H-pyrrol-1-yl)benzoate], the inhibition at 50 µM was greater than 50%.

As for `Nc1ccccc1OC1CN(c2cccc(C(=O)O)c2-n2cccc2)C1` [Example 256, 3-(3-(2-aminophenoxy)azetidin-1-yl)-2-(1H-pyrrol-1-yl)benzoic acid], the inhibition at 50 µM is greater than 50%.

For the compound `COC(=O)c1cccc(N2CC(Oc3cccnc3)C2)c1-n1cccc1` [Example 259, Methyl 3-(3-(pyridin-3-yloxy)azetidin-1-yl)-2-(1H-pyrrol-1-yl)benzoate], the inhibition at 50 µM was 10 to 30%.

With `O=C(O)c1cccc(N2CC(Oc3cccnc3)C2)c1-n1cccc1` [Example 260, 3-(3-(pyridin-3-yloxy)azetidin-1-yl)-2-(1H-pyrrol-1-yl)benzoic acid], the inhibition at 50 µM is less than 10%.

With `COC(=O)c1cccc(N2CC(Oc3ccc(-c4csc(NS(C)(=O)=O)n4)cc3)C2)c1-n1cccc1` [Example 261, Methyl 3-(3-(4-(2-(methylsulfonamido)thiazol-4-yl)phenoxy)azetidin-1-yl)-2-(1H-pyrrol-1-yl)benzoate], the inhibition at 50 µM was less than 10%.

On to `CS(=O)(=O)Nc1nc(-c2ccc(OC3CN(c4cccc(C(=O)O)c4-n4cccc4)C3)cc2)cs1` [Example 262, 3-(3-(4-(2-(methylsulfonamido)thiazol-4-yl)phenoxy)azetidin-1-yl)-2-(1H-pyrrol-1-yl)benzoic acid], for which the inhibition at 50 µM was less than 10%.

For the compound `COC(=O)c1cccc(N2CC(Oc3ccc(C(=O)N4CCOCC4)cc3)C2)c1-n1cccc1` [Example 265, Methyl 3-(3-(4-(morpholinyl-4-carbonyl)phenoxy)azetidin-1-yl)-2-(1H-pyrrol-1-yl)benzoate], the inhibition at 50 µM lay in the range of 10 to 30%.

`COC(=O)c1cccc(N2CC(Oc3ccc(C(=O)Nc4ccc(F)cc4)cc3)C2)c1-n1cccc1` [Example 267, Methyl 3-(3-(4-((4-fluorophenyl)carbamoyl)phenoxy)azetidin-1-yl)-2-(1H-pyrrol-1-yl)benzoate]: the inhibition at 50 µM was less than 10%.

Regarding `O=C(Nc1ccc(F)cc1)c1ccc(OC2CN(c3cccc(C(=O)O)c3-n3cccc3)C2)cc1` [Example 268, 3-(3-(4-((4-fluorophenyl)carbamoyl)phenoxy)azetidin-1-yl)-2-(1H-pyrrol-1-yl)benzoic acid], the inhibition at 50 µM is less than 10%.

`COC(=O)c1cccc(-c2cn(-c3ccc(CO)cc3)nn2)c1-c1ccc2cc[nH]c2c1` [Example 269, Methyl 3-(1-(4-(hydroxymethyl)phenyl)-1H-1,2,3-triazol-4-yl)-2-(1H-indol-6-yl)benzoate]: the inhibition at 50 µM lay within 30 to 50%.

For `COC(=O)c1cccc(C#CN2Cc3ccccc3S2(=O)=O)c1-n1cccc1` [Example 270], the inhibition at 50 µM is less than 10%.
